Results taken from PMC9316523, “Design, Synthesis and Molecular Docking of Novel Acetophenone-1,2,3-Triazoles Containing Compounds as Potent Enoyl-Acyl Carrier Protein Reductase (InhA) Inhibitors” (Pharmaceuticals, 2022).
Values after ≈ are worked out from the molar mass of the structure shown. Read-outs that look alike come from different tables or passages of the source.

Columns and labels:
M. tuberculosis InhA = target: T1, M. tuberculosis InhA (Mycobacterium tuberculosis, UniProt P9WGR1); assay: InhA enzymatic inhibition assay (NADH oxidation at 340 nm); assay type: biochemical
T1 construct: made in house; host or cells: E. coli
T1 sequence (P9WGR1 whole entry, looked up): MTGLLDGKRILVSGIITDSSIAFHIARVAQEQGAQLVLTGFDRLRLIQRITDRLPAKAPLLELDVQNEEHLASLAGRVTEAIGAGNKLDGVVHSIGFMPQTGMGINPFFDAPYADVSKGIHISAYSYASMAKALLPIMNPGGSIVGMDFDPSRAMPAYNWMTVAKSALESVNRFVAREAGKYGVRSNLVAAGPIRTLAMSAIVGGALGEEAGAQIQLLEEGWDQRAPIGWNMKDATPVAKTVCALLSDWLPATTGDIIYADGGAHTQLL

[1] = tested on: Mycobacterium tuberculosis; conditions: cited from earlier work
[2] = target: enoyl-acyl carrier protein reductase InhA enzyme; set-up: method as in PMID 32987135; conditions: cited from earlier work
[3] = 70 nM InhA, 2 h pre-incubation, 25 °C, pH 6.8, read-out: InhA inhibition IC50

Row | Compound | IC50 (M. tuberculosis InhA) [µM] | inhibition at 10 µM (M. tuberculosis InhA) [%] | melting point [°C] | IC50 (M. tuberculosis InhA; [3]) [µM] | MIC [1] [mg/L] | IC50 [2] [µM]
1 | CC(=O)c1ccc(OCc2cn(CC(=O)Nc3ccccc3F)nn2)cc1 [Compound 9, 2-(4-((4-Acetylphenoxy)methyl)-1H-1,2,3-triazol-1-Yl)-N-(2-fluorophenyl)acetamide] | 0.005 | 100 | 179 to 180 |  |  | 
2 | CC(=O)c1ccc(OCc2cn(CC(=O)NCc3ccc(C)cc3)nn2)cc1 [Compound 13, 2-(4-((4-Acetylphenoxy)methyl)-1H-1,2,3-triazol-1-Yl)-N-(4-methylbenzyl)acetamide] |  | 100 | 180 to 182 | 0.084 |  | 
3 | Clc1ccc(OCc2cn(Cc3ccc(Br)cc3)nn2)cc1 [Lead structure A] |  |  |  |  | 5.8 (≈ 15.3 µM) | 
4 | O=C(Cn1cc(-c2ccccc2)nn1)Nc1ccccc1 [Lead structure D] |  |  |  |  | 0.08 (≈ 0.287 µM) | 
5 | CC(=O)c1ccc(OCc2cn(CC(=O)Nc3ccc([N+](=O)[O-])cc3)nn2)cc1 [Compound 10, 2-(4-((4-Acetylphenoxy)methyl)-1H-1,2,3-triazol-1-Yl)-N-(4-nitrophenyl)acetamide] | 0.008 | 100 | 185 to 186 |  |  | 
6 | COc1ccc(CNC(=O)Cn2cc(COc3ccc(C(C)=O)cc3)nn2)cc1 [Compound 14, 2-(4-((4-Acetylphenoxy)methyl)-1H-1,2,3-triazol-1-Yl)-N-(4-methoxybenzyl)acetamide] | 0.002 | 100 | 125 to 126 |  |  | 
7 | CO[C@H]1/C=C/O[C@@]2(C)Oc3c(C)c(O)c4c(O)c(c(/C=N/N5CCN(C)CC5)c(O)c4c3C2=O)NC(=O)/C(C)=C\C=C\[C@H](C)[C@H](O)[C@@H](C)[C@@H](O)[C@@H](C)[C@H](OC(C)=O)[C@@H]1C [Rifampicin, reference compound] |  | 58.8 |  | 8.5 |  | 
8 | CC(=O)c1ccc(OCc2cn(CC(=O)NCc3ccc(F)cc3)nn2)cc1 [Compound 12, 2-(4-((4-Acetylphenoxy)methyl)-1H-1,2,3-triazol-1-Yl)-N-(4-fluorobenzyl)acetamide] |  | 100 | 165 to 166 | 0.041 |  | 
9 | CC[C@H](CO)C(=O)c1ccc(OCc2ccccc2)cc1O [Lead structure B] |  |  |  |  |  | 0.38
10 | COc1ccccc1NC(=O)Cn1cc(COc2ccc3c(c2)CCC3)nn1 [Lead structure C] |  |  |  |  | 6.25 (≈ 16.5 µM) | 
11 | CC(=O)c1ccc(OCc2cn(CC(=O)Nc3ccc(Cl)c(Cl)c3)nn2)cc1 [Compound 11, 2-(4-((4-Acetylphenoxy)methyl)-1H-1,2,3-triazol-1-Yl)-N-(3,4-dichlorophenyl)acetamide] |  | 100 | 205 to 206 | 0.043 |  | 
